# Assay results as given in patent US20080255244A1, “CaM Kinase II Inhibitor Improves Retinoic Acid Therapy and Inhibits the Proliferation of Myeloid Leukemia Cells” (Fred Hutchinson Cancer Research Center, priority 2007, published 2008).
# Key:
# Assay type in all cases: cell-based, human
# [1] = tested on: activated CaMKIIγ in KCL22 cells; experiment: Western blot of CaMKIIγ autophosphorylation in KCL22 cells; conditions: five days ATRA
# Experimental: FIG. 9. Terminal differentiation/apoptosis of myeloid leukemia cells is associated with decreased CaMKIIγ activation. (A) Lysates from the HL60, NB4 and U937 myeloid cell lines treated with ATRA (1 μM) for the indicated period of time were subjected to Western blots. (B) Lysates from the indicated myeloid cell lines treated for five days with the indicated concentration of ATRA were subjected to Western blots. (C) Lysates from HL60 cells treated with TPA (0.1 μM) for the indicated time were subjected to Western blots. (D) Lysates from NB4 cells treated with arsenic trioxide (1 uM) for the indicated time were subjected to Western blots.
# Antibodies and Western blots. Protein extracts, immunoprecipitations and Western blots were performed as previously detailed (Si J, Collins S J. IL-3-induced enhancement of retinoic acid receptor activity is mediated through Stat5, which physically associates with retinoic acid receptors in an IL-3-dependent manner. Blood 100: 4401-9 (2002)). Antibodies against CaMKI, CaMKIIγ, CaMKIV, c-myc, Stat3, Stat5, calmodulin, as well as the phosphospecific CaMKII (T286, 287) and phosphospecific CaMKI (T177) antibodies were from Santa Cruz Biotechnology. […]
# [2] = tested on: HL-60 cells; experiment: Differentiation of HL-60 cells (Wright Giemsa morphology, Cd11b FACS); conditions: single agent; five days; KN62 5 μM
# Experimental: FIG. 7. KN-62 regulates the differentiation of myeloid leukemia cell lines. (A) Wright Giemsa-stained HL-60 cells either (a) uninduced or treated for five days with (b) KN62 or (c) ATRA. (d) CD11b expression in HL-60 cells after five days exposure to KN62 (5 μM) or ATRA (1 μM). (B) Wright-Giemsa stained NB4 cells treated for five days with KN-62 (5 μM) and ATRA as indicated. […] (C) Cd11b expression of NB4 cells treated for five days with the indicated concentrations of RA and/or KN-62. (D) Western blots with the indicated antibodies were performed on HL60 cell lysates following incubation with KN62 for the indicated period of time. (E) Western blots of NB4 cell lysates following a five day incubation with the indicated compounds.
# Antibodies and chemical reagents. Antibodies against RARα, βtubulin, CaMKIIα, CaMKIIβ, CaMKIIγ, CaMKIIδ, CaMKIα, as well as phosphospecific antibodies against CaMKII were all purchased from Santa Cruz Biotechnology. Antibodies against N-CoR and SMRT were from Upstate Biotechnology. CaMKIV antibody was from BD Biosciences. Anti-FLAG antibody was from Sigma while anti-HA antibody from Novachem. Quantitation of CD11b surface antigen expression was performed utilizing the fluorescent-activated cell sorter (FACS) with PE-conjugated anti-CD11b antibody from Becton Dickinson. KN-62, KN-93 and ionomycin were obtained from Calbiochem. […]
# [3] = tested on: Kasumi cells; experiment: Differentiation of Kasumi cells; conditions: preliminary studies; not shown
# Source text: (§1) Pharmacological CaMK inhibitors trigger myeloid leukemia cell differentiation. Particularly compelling evidence for the physiological importance of the CaMKII—mediated regulation of RAR activity is our experimental observation that KN-62, a pharmacological inhibitor of the CaMKs, enhances both RAR transcriptional activity (FIG. 1B) and the differentiation of certain myeloid leukemia cell lines (FIG. 7). Acute myelogenous leukemia (AML) is a heterogenous disease, and successful therapy with RA has been generally confined to those leukemias harboring RARα chromosome translocations.
# [4] = tested on: KCL-22 cells; experiment: Differentiation of KCL-22 cells; conditions: preliminary studies; not shown
# Source text: as §1
# [5] = tested on: NB4 subclones that are unresponsive to ATRA; experiment: Differentiation of ATRA-unresponsive NB4 subclones
# Source text: as §1
# [6] = tested on: HL60R cells (mutated RARα); experiment: Differentiation of HL60R cells; conditions: HL60R harbor a mutated RARα
# Source text: as §1
# [7] = tested on: K562 cells; experiment: Western blots of signal transduction pathways in K562 cells; conditions: K562 cultured in KN93
# Experimental: FIG. 12. CaMKII regulates multiple signal transduction pathways in myeloid cells. (A,B) Lysates from K562 cells cultured for the indicated time in KN93 were subjected to Western blots. (C) The K562 cells transduced as described in Materials and Methods with either (i) the doxycycline (DOX) inducible expression vector/transactivator harboring the full length, Lys^43 mutated, kinase dead CaMKIIγ (kdCaMKIIγ (Tet-on)) or (ii) the CaMKII shRNA generating plasmids, were cultured in liquid suspension in the presence or absence of DOX as indicated, and cell counts obtained after 48 hours. (D) Lysates from K562 cells transduced with the indicated vectors were subjected to Western blots utilizing the indicated antibodies. For lanes 2 and 4 doxycycline (DOX) treatment was for two days.
# Antibodies and Western blots. Protein extracts, immunoprecipitations and Western blots were performed as previously detailed (Si J, Collins S J. IL-3-induced enhancement of retinoic acid receptor activity is mediated through Stat5, which physically associates with retinoic acid receptors in an IL-3-dependent manner. Blood 100: 4401-9 (2002)). Antibodies against CaMKI, CaMKIIγ, CaMKIV, c-myc, Stat3, Stat5, calmodulin, as well as the phosphospecific CaMKII (T286, 287) and phosphospecific CaMKI (T177) antibodies were from Santa Cruz Biotechnology. Antibodies against phospho-Stat1 (Ser727), phospho-Stat3 (Ser727 and Tyr 705), phospho-Stat5 (Tyr 694), phospho-p44/42 MAP kinase (Thr202/Tyr 204), p44/42 MAP kinase, phospho-p38 MAP kinase (Thr 180/Tyr 182), phospho-GSK3β (Ser9) were from Cell Signaling Technology. Antibodies against Stat1, GSK3β, β-catenin, PP2Ac, and cyclin D1 were from BD Biosciences.
# [8] = tested on: K562 cells; experiment: K562 proliferation in liquid suspension culture (cell counts)
# [9] = tested on: Kasumi cells; experiment: Kasumi proliferation in liquid suspension culture
# Experimental: (§2) FIG. 11. […] (A) K562 cells were seeded in liquid suspension culture at 5×10^4 cells/ml in the presence or absence of the indicated concentration of compounds, and cell counts were obtained at the indicated time. (B) The indicated myeloid leukemia cell lines were seeded in liquid suspension culture at 5×10^4 cells/ml in the presence or absence of KN93, and cell counts obtained at the indicated time. (C) K562 cells were electroporated with the LXSN expression vector harboring the kinase dead, Lys^43 mutated, truncated CaMKII construct (kdCaMKII) as well as with the control (empty) LXSN vector. The electroporated cells were diluted into 96 well plates in liquid suspension culture in the presence of G418 (1 mg/ml). Following eight days of culture the total number of discrete, actively proliferating G418 resistant colonies within individual wells was determined.
# (§3) Cell lines. All leukemia cell lines are cultured at 37° in RPMI supplemented with 5% heat-inactivated fetal calf serum.
# [10] = tested on: KG-1 cells; experiment: KG-1 proliferation in liquid suspension culture
# Experimental: as §2, §3
compound,measurement,setting,value
"CC1=C(/C=C/C(C)=C/C=C/C(C)=C/C(=O)O)C(C)(C)CCC1 [ATRA, All-trans retinoic acid]",activated CaMKIIγ level,[1],did not exhibit any decrease
CN([C@@H](Cc1ccc(OS(=O)(=O)c2cccc3cnccc23)cc1)C(=O)N1CCN(c2ccccc2)CC1)S(=O)(=O)c1cccc2cnccc12 [KN-62],HL-60 differentiation (morphologic differentiation and Cd11b expression),[2],potent inducer
same,differentiation of Kasumi,[3],does not induce
same,differentiation of KCL-22,[4],does not induce
same,KN62-mediated differentiation of ATRA-unresponsive NB4 subclones,[5],do not observe any
same,KN62-mediated differentiation of HL60R,[6],do not observe any
COc1ccc(S(=O)(=O)N(CCO)c2ccccc2CN(C)C/C=C/c2ccc(Cl)cc2)cc1 [KN-93],GSK3β Ser9 phosphorylation,[7],marked reduction
same,activation (phosphorylation) of p38,[7],decrease
same,activation (phosphorylation) of pMAPK p44/42,[7],decrease
same,"activation (phosphorylation) of pStat3 (Y705, S727)",[7],decrease
same,activation (phosphorylation) of pStat5 (Y694),[7],decrease
same,c-myc protein level,[7],reduction
same,cyclin D1 protein level,[7],reduction
same,expression of β-catenin,[7],marked reduction
same,total levels of these phosphorylated proteins,[7],not accompanied by any change
same,K562 viability,[8],did not affect
same,K562 cell proliferation,"[8]; seeded at 5×10^4 cells/ml, cell counts",inhibited the proliferation of K562 cells in a dose dependent manner
same,cell proliferation,[9],inhibition
same,cell viability or morphologic differentiation,[9],without any significant effect
same,cell proliferation,[10],inhibition
same,cell viability or morphologic differentiation,[10],without any significant effect
